Reference: publication PMC8885657, “HPV infection alters vaginal microbiome through down-regulating host mucosal innate peptides used by Lactobacilli as amino acid sources” (Nature Communications, 2022)
Several values for one entry are separate records, joined by “and”; a condition that tells them apart may be missing. Equal values may be shown once. Where no end group is shown, it is not given here.

B1: S100A7: "defensin-like" innate peptide constitutively secreted by cervical/vaginal mucosa (Abnova) (protein, UniProt P31151 2-101, looked up)
Protein S100-A7: SNTQAERSIIGMIDMFHKYTRRDDKIEKPSLLTMMKENFPNFLSACDKKGTNYLADVFEKKDKNEDKKIDFSEFLSLLGDIATDYHKQSHGAAPCSGGSQ

How the values were obtained:
L. crispatus [1] = test: ATP measurement in bacteria (BacTiter-Glo); assay type: cell-based, Lactobacillus crispatus; conditions: 6 × 10^7 CFU/ml, peptide 5 µg, 10 mM SPB, 6 h, 37 °C; luminescence; n = 5; statistical significance not reached in all conditions
Method: (§1) ATP level in bacteria was determined using the BacTiter-Glo Microbial Cell Viability Assay (Promega) according to manufacturer’s recommendations. For each bacterial species, 6 ×10^7 CFU/ml were mixed with elafin or S100A7 (5 µg) in 10 mM SPB and incubated 6 h at 37 °C. One hundred µl of bacterial-peptide solution were then mixed with an equal volume of BacTiter-Glo reagent and incubated for 5 min at room temperature. Luminescence was measured using a Centro LB960 microplate luminometer (Berthold Technologies, Bad Wildbad, Germany).

L. jensenii [2] = test: Internalization of fluorescent-labeled peptides in bacteria (flow cytometry); assay type: cell-based, Lactobacillus jensenii; conditions: Atto 488-labeled peptide 5 µg/ml, 5 × 10^4 CFU/ml, 10 mM SPB, 1 h30, 37 °C, trypan blue, n = 3
Method: (§2) To determine the incorporation of selected peptides (or their hydrolyzed products) within the cytoplasm of several bacterial species, free amine groups (lysine residues and N-terminus) were first conjugated with Atto 488 dye according to manufacturer’s recommendations (Atto 488 protein labeling kit, Sigma Aldrich). A total 5 × 10^4 colony-forming unit (CFU)/ml were then mixed with fluorescent labeled peptides (5 µg/ml) in 10 mM sodium phosphate buffer (final volume 100 µl) and incubated for 1 h30 at 37 °C before being analyzed by flow cytometry. Where indicated, trypan blue was added before the analysis in order to exclusively consider cytoplasmic fluorescence.

L. iners [3] = test: ATP measurement in bacteria (BacTiter-Glo); assay type: cell-based, Lactobacillus iners; conditions: 6 × 10^7 CFU/ml, peptide 5 µg, 10 mM SPB, 6 h, 37 °C; luminescence; n = 5; statistical significance not reached in all conditions
Method: as §1

L. jensenii [4] = test: ATP measurement in bacteria (BacTiter-Glo); assay type: cell-based, Lactobacillus jensenii; conditions: 6 × 10^7 CFU/ml, peptide 5 µg, 10 mM SPB, 6 h, 37 °C; luminescence; n = 5; statistical significance not reached in all conditions
Method: as §1

[5] = test system: Lactobacillus jensenii LMG 6414; test: Antimicrobial assay (surviving colonies, CFU count); assay type: cell-based; conditions: for Bacterial survival (surviving colonies): Fig 5E, L. jensenii, individual replicates; for Bacterial survival (surviving colonies) / positive effect on survival in acidic conditions: pH 5.8; for positive effect on survival in potassium phosphate buffer: KPB pH 7.4, 10 mM; for positive effect on survival in potassium phosphate buffer / positive effect on survival in acidic conditions / effect on bacterial growth/survival (percentage of surviving colonies): 6 h; for positive effect on survival in potassium phosphate buffer / positive effect on survival in acidic conditions / antimicrobial/protective activity in reducing environment: n = 4; for effect on bacterial growth/survival (percentage of surviving colonies): peptide 1–10 µg/ml, 5 × 10^4 CFU/ml, 10 mM sodium phosphate buffer, 37 °C, plated on Columbia Blood agar, n = 3; for antimicrobial/protective activity in reducing environment: peptides pre-incubated with 2 mM DTT 30 min 37 °C, 6 h with bacteria; for incubation time at which a significant increased percentage of surviving colonies was detected: starvation assay (no nutrients), 45 min to 9 h, n = 8
Method: (§3) Bacterial strains Lactobacillus crispatus DSM 20356, Lactobacillus iners CIP 105923 and Garnerella vaginalis CCUG 43336 were kindly provided by the Department of Clinical Microbiology at University Hospital Center of Liege. Lactobacillus jensenii LMG 6414 was obtained from BCCM/LMG Bacteria Collection (University of Gent, Belgium). Log-phase bacteria were grown on Columbia agar with 5% sheep blood (Becton Dickinson, Franklin Lakes, NJ, USA) at 37 °C in a humidified CO2 atmosphere (Lactobacilli) or in anaerobic jars (G. vaginalis). To analyze the antimicrobial effect of innate peptides expressed by vaginal/cervical mucosa, 5 × 10^4 colony-forming unit (CFU)/ml were mixed with different peptides (concentration range: 1–10 µg/ml) in 10 mM sodium phosphate buffer (SPB) (final volume 100 µl) and incubated for 45 min to 9 h at 37 °C. Where indicated, the peptides were incubated with 2 mM dithiothreitol (DTT) (Invitrogen, Carlsbad, CA, USA) for 30 min at 37 °C before adding the bacteria. In indicated experiments, incubation was carried out in potassium phosphate buffer (KPB) (pH: 7.4, 10 mM). The following peptides were tested: HβD1 (PeptaNova, Sandhausen, Germany), HβD2 (PeptaNova), HβD3 (PeptaNova), HβD4 (PeptaNova), HD-5 (PeptaNova), HD-6 (PeptaNova), elafin (PeptaNova), S100A7 (Abnova, Taipei City, Taiwan) and SLPI (R&D Systems, Minneapolis, MI, USA). Bacterial suspensions were then plated on Columbia Blood agar plates for 24–48 h to determine CFU. High-resolution images for each condition were taken. Colony detection and counts were finally performed using ImageJ software (NIH, Bethesda, MD, USA) and verified by manual counting.

[6] = test system: Lactobacillus crispatus DSM 20356; test: as above; assay type: cell-based; conditions: for Bacterial survival (surviving colonies): Fig 5E, L. crispatus, individual replicates; for Bacterial survival (surviving colonies) / positive effect on survival in acidic conditions: pH 5.8; for positive effect on survival in potassium phosphate buffer: KPB pH 7.4, 10 mM; for positive effect on survival in potassium phosphate buffer / positive effect on survival in acidic conditions / effect on bacterial growth/survival (percentage of surviving colonies): 6 h; for positive effect on survival in potassium phosphate buffer / positive effect on survival in acidic conditions: n = 4; for effect on bacterial growth/survival (percentage of surviving colonies): peptide 1–10 µg/ml, 5 × 10^4 CFU/ml, 10 mM sodium phosphate buffer, 37 °C, plated on Columbia Blood agar, n = 3; for antimicrobial/protective activity in reducing environment: peptides pre-incubated with 2 mM DTT 30 min 37 °C, 6 h with bacteria, n = 6; for incubation time at which a significant increased percentage of surviving colonies was detected: starvation assay (no nutrients), 45 min to 9 h, n = 8
Method: as §3

[7] = test system: Lactobacillus iners CIP 105923; test: as above; assay type: cell-based; conditions: for Bacterial survival (surviving colonies): Fig 5E, L. iners, individual replicates; for Bacterial survival (surviving colonies) / positive effect on survival in acidic conditions: pH 5.8; for positive effect on survival in potassium phosphate buffer: KPB pH 7.4, 10 mM; for positive effect on survival in potassium phosphate buffer / positive effect on survival in acidic conditions / effect on bacterial growth/survival (percentage of surviving colonies): 6 h; for positive effect on survival in potassium phosphate buffer / positive effect on survival in acidic conditions: n = 4; for effect on bacterial growth/survival (percentage of surviving colonies): peptide 1–10 µg/ml, 5 × 10^4 CFU/ml, 10 mM sodium phosphate buffer, 37 °C, plated on Columbia Blood agar, n = 3; for antimicrobial/protective activity in reducing environment: peptides pre-incubated with 2 mM DTT 30 min 37 °C, 6 h with bacteria, n = 5; for incubation time at which a significant increased percentage of surviving colonies was detected: starvation assay (no nutrients), n = 6
Method: as §3

L. iners [8] = test: Internalization of fluorescent-labeled peptides in bacteria (flow cytometry); assay type: cell-based, Lactobacillus iners; conditions: Atto 488-labeled peptide 5 µg/ml, 5 × 10^4 CFU/ml, 10 mM SPB, 1 h30, 37 °C, trypan blue, n = 3
Method: as §2

L. crispatus [9] = test: as above; assay type: cell-based, Lactobacillus crispatus; conditions: Atto 488-labeled peptide 5 µg/ml, 5 × 10^4 CFU/ml, 10 mM SPB, 1 h30, 37 °C, trypan blue, n = 3
Method: as §2

Molecule | ATP production (L. crispatus [1]) | internalization of fluorescent-labeled peptide (or hydrolyzed products) within the cytoplasm of bacteria (L. jensenii [2]) | ATP production (L. iners [3]) | ATP production (L. jensenii [4]) | Bacterial survival (surviving colonies) [5] | positive effect on survival in potassium phosphate buffer [5] | positive effect on survival in acidic conditions [5] | effect on bacterial growth/survival (percentage of surviving colonies) [5] | antimicrobial/protective activity in reducing environment [5] | incubation time at which a significant increased percentage of surviving colonies was detected [5] | Bacterial survival (surviving colonies) [6] | positive effect on survival in potassium phosphate buffer [6] | positive effect on survival in acidic conditions [6] | effect on bacterial growth/survival (percentage of surviving colonies) [6] | antimicrobial/protective activity in reducing environment [6] | incubation time at which a significant increased percentage of surviving colonies was detected [6] | Bacterial survival (surviving colonies) [7] | positive effect on survival in potassium phosphate buffer [7] | positive effect on survival in acidic conditions [7] | effect on bacterial growth/survival (percentage of surviving colonies) [7] | further results
elafin: "defensin-like" innate peptide constitutively secreted by cervical/vaginal mucosa (PeptaNova) (AQEPVKGPVSTKPGSCPIILIRCAMLNPPNRCLKDTDCPGIKKCCEGSCGMACFVPQ; not fully specified; ends and bridges not checked; UniProt P19957 61-117, looked up) | increase of ATP production | internalization | increase of ATP production | increase of ATP production | 223.81 and 226.19 and 261.90 and 150.02 | did not modify the positive effect | did not modify the positive effect | do not display any antimicrobial activities | significant protective effect | only detected after 3 or 6 h | 124.66 and 146.1 and 157.25 and 154.15 | did not modify the positive effect | did not modify the positive effect | do not display any antimicrobial activities | significant protective effect | only detected after 3 or 6 h | 148.35 and 185.56 and 157.03 and 142.84 | did not modify the positive effect | did not modify the positive effect | do not display any antimicrobial activities | antimicrobial/protective activity in reducing environment [7]: significant protective effect; incubation time at which a significant increased percentage of surviving colonies was detected [7]: only detected after 3 or 6 h; internalization of fluorescent-labeled peptide (or hydrolyzed products) within the cytoplasm of bacteria (L. iners [8]): internalization; internalization of fluorescent-labeled peptide (or hydrolyzed products) within the cytoplasm of bacteria (L. crispatus [9]): internalization
B1 | increase of ATP production | internalization | increase of ATP production | increase of ATP production | 419.05 and 164.29 and 304.76 and 269.05 | did not modify the positive effect | did not modify the positive effect | do not display any antimicrobial activities | significant protective effect | only detected after 3 or 6 h | 127.74 and 112.92 and 139.54 and 168.69 | did not modify the positive effect | did not modify the positive effect | do not display any antimicrobial activities | significant protective effect | only detected after 3 or 6 h | 138.53 and 246.67 and 123.50 and 159.47 | did not modify the positive effect | did not modify the positive effect | do not display any antimicrobial activities | antimicrobial/protective activity in reducing environment [7]: significant protective effect; incubation time at which a significant increased percentage of surviving colonies was detected [7]: only detected after 3 or 6 h; internalization of fluorescent-labeled peptide (or hydrolyzed products) within the cytoplasm of bacteria (L. iners [8]): internalization; internalization of fluorescent-labeled peptide (or hydrolyzed products) within the cytoplasm of bacteria (L. crispatus [9]): internalization
